pKd: −log10 of the molar value. Where a SMILES comes first, the peptide text is derived from it.
Biological target: T1, GST-SHP-1.SH2(C) (Mus musculus, UniProt P29351)
T1 construct: recombinant fusion proteins corresponding to the isolated N- and C-SH2 domains of SHP-1; made in house; host or cells: E. coli DH5α
T1 sequence (P29351 110-213 limits assumed): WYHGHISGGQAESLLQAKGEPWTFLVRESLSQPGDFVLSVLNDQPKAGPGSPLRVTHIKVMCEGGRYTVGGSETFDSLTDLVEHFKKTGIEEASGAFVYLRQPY
Test: Surface plasmon resonance, binding of phosphorylated KIR ITIM peptides to SHP-1 C-SH2 domain
Parameters: species or system murine
Settings: calculated from koff/kon
Experimental: Fusion proteins and surface plasmon resonance analysis. Surface plasmon resonance (SPR) measurements were performed on a BIAcore™ (Pharmacia). The GST-SHP-1.SH2(NC), GST-SHP-1.SH2(N), GST-SHP-1.SH2(C), GST-SHIP.SH2 fusion proteins generated from the murine phosphatase cDNA, were purified from DH5α lysates. Briefly, overnight culture at 37°C in LB medium containing 50 µg/ml ampicillin was diluted 1/10 in fresh medium, and incubated until the absorbance at 600 nm reaches 1-2. At that point, IPTG was added (1mM), and incubation continued for an additional 4 hours at 37°C. […] Protein purity was assessed by 12.5 % SDS-PAGE, and Coomassie blue staining. […] Then, biotinylated peptides were injected, and their binding to streptavidine-coated microchips was assessed using anti-phosphotyrosine 4G10 mAb (UBI).
The measurement of phosphorylated p58.2 peptide binding to GST-SHP-1.SH2(N) and GST-SHP-1.SH2(C) fusion proteins was at a constant 5 µl/min flow rate. […] Results are expressed as corrected resonance units (CRU) corresponding to the raw RU values subtracted from background RU value due to the injection medium. In this representative experiment, 130 RU of p58.2.1 peptide and 160 RU of p58.2.2 peptide were immobilized on microchips. koff and kon were calculated from three independent measurements using the BIAevaluation 2.0 software. Kd was calculated from koff/kon.

`CC[C@H](C)[C@H](NC(=O)[C@H](CC(=O)O)NC(=O)[C@@H](NC(=O)[C@@H]1CCCN1C(=O)[C@@H]1CCCN1C(=O)[C@@H](NC(=O)[C@H](CCCCN)NC(=O)[C@@H]1CCCN1C(=O)[C@H](CCCNC(=N)N)NC(=O)[C@H](CCC(N)=O)NC(=O)[C@H](CO)NC(=O)[C@@H]1CCCN1C(=O)[C@H](CCCNC(=N)N)NC(=O)CCCC[C@@H]1SC[C@@H]2NC(=O)N[C@@H]21)[C@@H](C)O)[C@@H](C)O)C(=O)N[C@H](C(=O)N[C@H](C(=O)N[C@@H](Cc1ccc(OP(=O)(O)O)cc1)C(=O)N[C@H](C(=O)N[C@@H](CCC(=O)O)C(=O)N[C@@H](CC(C)C)C(=O)N1CCC[C@H]1C(=O)N[C@@H](CC(N)=O)C(=O)N[C@@H](C)C(=O)N[C@@H](CCC(=O)O)C(=O)N1CCC[C@H]1C(=O)O)[C@@H](C)O)C(C)C)[C@@H](C)CC` [p58.2.2, RPSQRPKTPPTDIIVY333TELPNAEP] (HELM PEPTIDE1{[O=C1N[C@H]2[C@H](CS[C@H]2CCCCC(=O)[*:2])N1].R.P.S.Q.R.P.K.T.P.P.T.D.I.I.V.[O=C([C@H](Cc1ccc(OP(=O)(O)O)cc1)N[*:1])[*:2]].T.E.L.P.N.A.E.P}$$$$V2.0) showed a pKd of 6.26.

— EP0861891A1, “Compounds for modulating cell negative regulations and biological applications thereof” (INSTITUT NATIONAL DE LA SANTE ET DE LA RECHERCHE MEDICALE …, priority 1996, dated 1998)
